From ChEMBL document CHEMBL1125524, “Adenosine A1 antagonists. 2. Structure-activity relationships on diuretic activities and protective effects against acute renal failure” (J Med Chem, 1992)

What was measured:
Adenosine A2 receptor = Adenosine A2 receptor (Rattus norvegicus, UniProt P29276+P30543)
Rattus norvegicus [1] = experiment: Ratio of urinary excretion value (urinary volume) in treated rats to that in control rats, at a peroral dose of 0.4 mg/Kg; type: functional, Urine
Rattus norvegicus [2] = experiment: Serum creatinine concentration measured after intraperitoneal administration of 1 mg/kg of compound to rats(vehicle 4.74+/-0.31); type: functional
Rattus norvegicus [3] = experiment: Serum creatinine concentration measured after intraperitoneal administration of 0.1 mg/kg of compound to rats(vehicle 6.90+/-0.20); type: functional
Rattus norvegicus [4] = experiment: Effect on urinary excretion potassium and sodium after oral administration of 0.4 mg/kg to rats(potassium and sodium excretion in control rat is 0.191+/-0.020); type: functional, Urine
Rattus norvegicus [5] = experiment: Ratio of urinary excretion value (urinary volume) in treated rats to that in control rats, at a peroral dose of 1.6 mg/Kg; type: functional, Urine
Rattus norvegicus [6] = experiment: Percent inhibition of serum creatinine by the compound given as ratio of Cr value in treated to vehicle treated ones after intraperitoneal administration of 1 mg/kg of compound to rats(vehicle 4.74+/-0.31); type: functional; conditions: ip
Rattus norvegicus [7] = experiment: Ratio of urinary excretion value (urinary volume) in treated rats to that in control rats, at a peroral dose of 0.1 mg/Kg; type: functional, Urine
Rattus norvegicus [8] = experiment: Oral diuretic activity was measured after oral administration of 1.6 mg/kg to rats(control volume is 0.86+/-0.09); type: functional, Urine
Rattus norvegicus [9] = experiment: Ratio of sodium ion/potassium ion concentration in treated rats to that in control rats, at a peroral dose of 0.1 mg/Kg; type: functional
Rattus norvegicus [10] = experiment: Ratio of urinary excretion value (Na+ concentration) in treated rats to that in control rats, at a peroral dose of 1.6 mg/Kg; type: functional, Urine
Rattus norvegicus [11] = experiment: Effect on urinary excretion potassium and sodium after oral administration of 1.6 mg/kg to rats(potassium and sodium excretion in control rat is 0.174+/-0.013); type: functional, Urine
Rattus norvegicus [12] = experiment: Effect on urinary excretion potassium and sodium after oral administration of 0.1 mg/kg to rats(potassium and sodium excretion in control rat is 0.180+/-0.017); type: functional, Urine
Rattus norvegicus [13] = experiment: Ratio of sodium ion/potassium ion concentration in treated rats to that in control rats, at a peroral dose of 0.4 mg/Kg; type: functional
Rattus norvegicus [14] = experiment: Percent inhibition of serum creatinine by the compound given as ratio of Cr value in treated to vehicle treated ones after intraperitoneal administration of 0.1 mg/kg of compound to rats(vehicle 6.90+/-0.20); type: functional; conditions: ip
Rattus norvegicus [15] = experiment: Urea nitrogen concentration measured after intraperitoneal administration of 1 mg/kg of compound to rats(vehicle 139.8+/-7.8); type: functional
Rattus norvegicus [16] = experiment: Oral diuretic activity was measured after oral administration of 0.4 mg/kg to rats(control volume is 1.15+/-0.17); type: functional, Urine
Adenosine receptor A1 = biological target: T1, Adenosine receptor A1 (Cavia porcellus, UniProt P47745)
T1 sequence (P47745 whole entry): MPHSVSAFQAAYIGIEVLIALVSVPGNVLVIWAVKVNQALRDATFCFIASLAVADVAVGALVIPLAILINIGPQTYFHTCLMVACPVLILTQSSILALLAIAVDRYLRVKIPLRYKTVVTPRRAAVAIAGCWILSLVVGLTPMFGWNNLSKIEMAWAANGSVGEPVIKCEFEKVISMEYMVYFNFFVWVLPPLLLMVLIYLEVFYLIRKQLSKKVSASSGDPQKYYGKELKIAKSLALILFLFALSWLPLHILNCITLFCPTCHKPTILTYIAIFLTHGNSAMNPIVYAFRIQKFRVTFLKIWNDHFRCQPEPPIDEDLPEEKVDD
Description: Binding affinity against adenosine A1 receptor in guinea pig forebrain membranes using N6-[3H]cyclohexyladenosine as radioligand

Rattus norvegicus [17] = experiment: Percent inhibition of Urea nitrogen by the compound given as ratio of UN value in treated to vehicle treated ones after intraperitoneal administration of 0.1 mg/kg of compound to rats(vehicle 171.3+/-6.4); type: functional; conditions: ip
Rattus norvegicus [18] = experiment: Ratio of urinary excretion value (Na+ concentration) in treated rats to that in control rats, at a peroral dose of 0.1 mg/Kg; type: functional, Urine
Rattus norvegicus [19] = experiment: Percent inhibition of Urea nitrogen by the compound given as ratio of UN value in treated to vehicle treated ones after intraperitoneal administration of 1 mg/kg of compound to rats(vehicle 139.8+/-7.8); type: functional; conditions: ip
Rattus norvegicus [20] = experiment: Oral diuretic activity was measured after oral administration of 0.1 mg/kg to rats(control volume is 1.05+/-0.11); type: functional, Urine
Rattus norvegicus [21] = experiment: Ratio of sodium ion/potassium ion concentration in treated rats to that in control rats, at a peroral dose of 1.6 mg/Kg; type: functional
Rattus norvegicus [22] = experiment: Urea nitrogen concentration measured after intraperitoneal administration of 0.1 mg/kg of compound to rats(vehicle 171.3+/-6.4); type: functional
Rattus norvegicus [23] = experiment: Ratio of urinary excretion value (Na+ concentration) in treated rats to that in control rats, at a peroral dose of 0.4 mg/Kg; type: functional, Urine

Structure (SMILES): CCn1c(=O)c2nc(C3CCCC3)[nH]c2n(CC)c1=O
- Ki (Adenosine A2 receptor): 440 nM
- T/C (Rattus norvegicus [1]): 1.64
- Cr (Rattus norvegicus [2]): 2.28 mg/dL
- Cr (Rattus norvegicus [3]): 5.48 mg/dL
- Na (Rattus norvegicus [4]): 0.342 m equiv 6hr-1 100g-1
- T/C (Rattus norvegicus [5]): 2.43
- inhibition in vivo at 1 mg/kg (Rattus norvegicus [6]): 52%
- T/C (Rattus norvegicus [7]): 1.03
- Urine volume (Rattus norvegicus [8]): 2.09 ml 6hr-1 100g-1
- Na+/K+ (Rattus norvegicus [9]): 1
- T/C (Rattus norvegicus [10]): 2.09
- Na (Rattus norvegicus [11]): 0.24 m equiv 6hr-1 100g-1
- Na (Rattus norvegicus [12]): 0.206 m equiv 6hr-1 100g-1
- Na+/K+ (Rattus norvegicus [13]): 1.54
- inhibition in vivo at 0.1 mg/kg (Rattus norvegicus [14]): 21%
- UN (Rattus norvegicus [15]): 65.5 mg/dL
- Urine volume (Rattus norvegicus [16]): 1.89 ml 6hr-1 100g-1
- Ki (Adenosine receptor A1): 19 nM
- inhibition in vivo at 0.1 mg/kg (Rattus norvegicus [17]): 16%
- T/C (Rattus norvegicus [18]): 1.15
- inhibition in vivo at 1 mg/kg (Rattus norvegicus [19]): 53%
- Urine volume (Rattus norvegicus [20]): 1.09 ml 6hr-1 100g-1
- Na+/K+ (Rattus norvegicus [21]): 1.56
- UN (Rattus norvegicus [22]): 143.9 mg/dL
- T/C (Rattus norvegicus [23]): 1.79
